Measurements reported in patent US20260248822A1, “METHOD AND COMPOSITION FOR THE TREATMENT OF CANCER” (IMPACT HEALTH GLOBAL LTD., priority 2023, published 2026).
Like-named read-outs stand apart in the source and are kept apart here.

Experiments:
[1] = test system: 4T1 cells; assay: MTT cell viability assay in 4T1 cells; type: cell-based, Mouse; conditions: for cancer cell viability, dose dependence: 4T1 cells, 0.5, 1, 1.5 and 2 mM, compared to the control; for cytotoxicity at 2000 µM: Mus musculus, read-out: reduction of cell viability compared to the control
Procedure: Mouse breast carcinoma model (4T1 cells) were cultured in the presence of taraxasterol, vitexin, sinigrin or a mixture of all these molecules, at the indicated concentrations (0.5, 1, 1.5, and 2 mM), for 48 hours. Cell viability was determined by MTT colorimetric assay, in which a yellow tetrazole is reduced to purple formazan in living cells. The resultant color was measured at 450 nm. Reduced viability of cancer cells was a marker for the efficacy of the treatment.

[2] = test system: human lung cancer cells; conditions: cited from earlier work
[3] = test system: human colon cancer cells; conditions: cited from earlier work
[4] = test system: tumors; conditions: mouse, in vivo; cited from earlier work

| SMILES | cancer cell viability, dose dependence ([1]; 48 hours) | cytotoxicity at 2000 µM ([1]; 4T1, 48 h) [%] | apoptosis in human lung cancer cells [2] | apoptosis in human colon cancer cells [3] | tumor growth in human colon cancer cells [3] | cytotoxicity at 2000 µM ([1]; 4T1 cells, 2 mM, 48 hours, MTT) [%] | growth of tumors in mice [4] |
| --- | --- | --- | --- | --- | --- | --- | --- |
| C=CC/C(=N/OS(=O)(=O)O)S[C@@H]1O[C@H](CO)[C@@H](O)[C@H](O)[C@H]1O [sinigrin, (Z)-N-[1-(β-D-glucopyranosylsulfanyl)but-3-en-1-ylidene] hydroxylamine-O-sulfonic acid] | reduced cancer cell viability dose dependently | 23 | induces apoptosis | – | – | – | – |
| C=C1CC[C@]2(C)CC[C@]3(C)[C@H](CC[C@@H]4[C@@]5(C)CC[C@H](O)C(C)(C)[C@@H]5CC[C@]43C)[C@H]2[C@@H]1C [taraxasterol, (3S,4aR,6aR,6bR,8aR,12S,12aR,12bR,14aR,14bR)-4,4,6a,6b,8a,12, 14b-heptamethyl-11-methylidenedocosahydropicen-3-ol] | reduced cancer cell viability dose dependently | – | – | induces apoptosis | suppresses tumor growth | 29 | – |
| O=c1cc(-c2ccc(O)cc2)oc2c([C@@H]3O[C@H](CO)[C@@H](O)[C@H](O)[C@H]3O)c(O)cc(O)c12 [vitexin, 8-(β-D-glucopyranosyl)-4′,5,7-trihydroxyflavone] | reduced cancer cell viability dose dependently | – | induces apoptosis | – | – | 20 | suppresses the growth of tumors |
